Values of other authors as cited in patent publication US12178826B2, “Formulations for the delivery of autophagy stimulating trehalose” (priority 2017, dated 2024).

Tests used:
[1] = test system: mutant SOD1 transgenic mice; settings: Trehalose administration
[2] = test system: NSC34 motoneuron cells
[3] = after inhalation; general statement, no test described

For `OC[C@H]1O[C@H](O[C@H]2O[C@H](CO)[C@@H](O)[C@H](O)[C@H]2O)[C@H](O)[C@@H](O)[C@@H]1O` [Trehalose, (2R,3S,4S,5R,6R)-2-(Hydroxymethyl)-6-[(2R,3R,4S,5S,6R)-3,4,5-trihydroxy-6-(hydroxymethyl)oxan-2-yl]oxyoxane-3,4,5-triol], the “accumulation of SOD1 aggregates” value [1] is given as “decreased accumulation of SOD1 aggregates”, the life span [1] is given as “significantly prolonged life span” and the motoneuron survival [1] is given as “enhanced motoneuron survival”. The “mutant SOD1 degradation by autophagy” value [2] was “led to mutant SOD1 degradation by autophagy” and the “time to absorption from the lungs into the bloodstream” value [3] was ≤ 2 h.
